How the values were obtained:
Assay type in all cases: biochemical
FBXL10 = FBXL10 (Homo sapiens (Human), UniProt Q8NHM5); assay: FBXL10 in vitro enzyme inhibition assay (AlphaScreen); conditions: 0.3 nM FBXL10, H3K36me2-biotin peptide
Excerpt: (§1) This assay determines the ability of a test compound to inhibit FBXL11, FBXL10, and PHF8 demethylase activity. Baculovirus expressed FBXL11 (GenBank Accession #NM_012308, AA1-1162) was purchased from BPS Bioscience (Cat#50102). Baculovirus expressed FBXL10 (GenBank Accession #NM_032590, AA 1-650) was purchased from BPS Bioscience (Cat #50120). Baculovirus expressed PHF8 (GenBank Accession NP_055922.1) was purchased from Active Motif (Cat#31435).
(§2) The ability of test compounds to inhibit the activity of FBXL10 was determined in 384-well plate format under the following reaction conditions: 0.3 nM FBXL10, 30 nM H3K36me2-biotin labeled peptide (Anaspec cat #64442), 0.2 μM alpha-ketoglutaric acid in assay buffer of 50 mM HEPES, pH7.3, 0.005% Brij35, 0.5 mM TCEP, 0.2 mg/ml BSA, 50 μM sodium L-ascorbate, 5 μM ammonium iron(II) sulfate. Reaction product is determined quantitatively by AlphaScreen detection after the addition of detection reagents anti-H3K36me1 antibody, AlphaScreen® Streptavidin-coated Donor beads, and AlphaScreen® Protein A Acceptor beads in 50 mM HEPES, pH7.3, 10 mM NaCl, 0.005% Brij35, 5 mM EDTA, 2 mg/ml BSA to final 10 μg/ml beads.
(§3) The assay reaction was initiated by the following: 3 μl of the mixture of 90 nM H3K36me2-biotin labeled peptide and 0.6 μM alpha-ketoglutaric acid with 3 μl of 11-point serial diluted inhibitor in 3% DMSO are added to each well of 384 well Proxiplate (Perkin Elmer), followed by the addition of 3 μl of 0.9 nM FBXL10 to initiate the reaction. The reaction mixture is incubated at room temperature for 1 hour, and terminated by the addition of 3 μl of appropriate dilution of anti H3K36me1 antibody in 50 mM HEPES, pH7.3, 10 mM NaCl, 0.005% Brij35, 5 mM EDTA, 2 mg/ml BSA. Plates will then incubated at room temperature for 40 minutes, followed by addition of 3 ul of 50 μg/ml AlphaScreen® Streptavidin-coated Donor beads and AlphaScreen® Protein A Acceptor beads in 50 mM HEPES, pH7.3, 10 mM NaCl, 0.005% Brij35, 5 mM EDTA, 2 mg/ml BSA. Plates will then be read by EnVision Multilabel Reader in AlphaScreen mode after minimum 2 hour incubation at room temperature. The AlphaScreen signal for each well is used to determine inhibition constant (IC50).
(§4) The ability of the compounds disclosed herein to inhibit demethylase activity was quantified and the respective IC50 value was determined.

FBXL11 = FBXL11 (Homo sapiens (Human), UniProt Q9Y2K7); assay: FBXL11 in vitro enzyme inhibition assay (AlphaScreen); conditions: 0.15 nM FBXL11, H3K36me2-biotin peptide
Sequence of FBXL11 (Q9Y2K7 whole entry): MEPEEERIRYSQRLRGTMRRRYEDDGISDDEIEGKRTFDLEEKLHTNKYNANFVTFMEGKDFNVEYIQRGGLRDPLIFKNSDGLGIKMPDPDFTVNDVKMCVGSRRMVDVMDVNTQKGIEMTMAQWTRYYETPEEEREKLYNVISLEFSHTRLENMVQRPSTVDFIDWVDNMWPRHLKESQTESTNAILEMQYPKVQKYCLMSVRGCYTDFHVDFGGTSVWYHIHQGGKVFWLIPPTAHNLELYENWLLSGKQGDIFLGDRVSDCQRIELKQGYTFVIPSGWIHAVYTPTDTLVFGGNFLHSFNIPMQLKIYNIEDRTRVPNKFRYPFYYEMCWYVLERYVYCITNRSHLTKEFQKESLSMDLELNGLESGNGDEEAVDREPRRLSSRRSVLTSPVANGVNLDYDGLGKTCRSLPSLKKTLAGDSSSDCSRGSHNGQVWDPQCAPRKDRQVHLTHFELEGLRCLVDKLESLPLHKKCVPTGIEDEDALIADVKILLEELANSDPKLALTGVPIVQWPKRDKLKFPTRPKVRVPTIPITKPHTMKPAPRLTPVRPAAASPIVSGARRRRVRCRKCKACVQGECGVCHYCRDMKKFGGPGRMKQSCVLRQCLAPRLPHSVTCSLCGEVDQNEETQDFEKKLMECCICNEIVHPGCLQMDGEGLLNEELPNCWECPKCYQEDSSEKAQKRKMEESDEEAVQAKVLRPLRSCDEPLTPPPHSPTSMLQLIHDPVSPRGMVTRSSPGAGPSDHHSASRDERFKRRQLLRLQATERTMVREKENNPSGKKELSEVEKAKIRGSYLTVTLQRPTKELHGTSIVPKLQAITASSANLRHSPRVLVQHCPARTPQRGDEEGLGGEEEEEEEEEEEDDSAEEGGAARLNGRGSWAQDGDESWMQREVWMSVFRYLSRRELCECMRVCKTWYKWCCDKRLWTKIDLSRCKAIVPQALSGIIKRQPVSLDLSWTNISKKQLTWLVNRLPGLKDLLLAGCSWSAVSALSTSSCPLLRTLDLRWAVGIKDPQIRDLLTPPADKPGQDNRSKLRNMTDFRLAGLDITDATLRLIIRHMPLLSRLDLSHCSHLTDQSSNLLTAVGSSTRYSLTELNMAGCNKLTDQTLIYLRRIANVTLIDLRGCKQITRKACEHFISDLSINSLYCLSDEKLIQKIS
Excerpt: as §1
as §2, with “FBXL11” for “FBXL10”, “0.15” for “0.3”, “FBXL11,” for “FBXL10,”
as §3, with “0.45” for “0.9”, “FBXL11” for “FBXL10”
The ability of the compounds disclosed herein to inhibit demethylase activity was quantified and the respective IC50 value was determined. Table 3 provides the IC50 values of various compounds disclosed herein.

PHF8 = PHF8 (Homo sapiens (Human), UniProt Q9UPP1); assay: PHF8 in vitro enzyme inhibition assay (TR-FRET); conditions: 3 nM PHF8, H3K9me1-biotin peptide
Sequence of PHF8 (Q9UPP1 37-1060): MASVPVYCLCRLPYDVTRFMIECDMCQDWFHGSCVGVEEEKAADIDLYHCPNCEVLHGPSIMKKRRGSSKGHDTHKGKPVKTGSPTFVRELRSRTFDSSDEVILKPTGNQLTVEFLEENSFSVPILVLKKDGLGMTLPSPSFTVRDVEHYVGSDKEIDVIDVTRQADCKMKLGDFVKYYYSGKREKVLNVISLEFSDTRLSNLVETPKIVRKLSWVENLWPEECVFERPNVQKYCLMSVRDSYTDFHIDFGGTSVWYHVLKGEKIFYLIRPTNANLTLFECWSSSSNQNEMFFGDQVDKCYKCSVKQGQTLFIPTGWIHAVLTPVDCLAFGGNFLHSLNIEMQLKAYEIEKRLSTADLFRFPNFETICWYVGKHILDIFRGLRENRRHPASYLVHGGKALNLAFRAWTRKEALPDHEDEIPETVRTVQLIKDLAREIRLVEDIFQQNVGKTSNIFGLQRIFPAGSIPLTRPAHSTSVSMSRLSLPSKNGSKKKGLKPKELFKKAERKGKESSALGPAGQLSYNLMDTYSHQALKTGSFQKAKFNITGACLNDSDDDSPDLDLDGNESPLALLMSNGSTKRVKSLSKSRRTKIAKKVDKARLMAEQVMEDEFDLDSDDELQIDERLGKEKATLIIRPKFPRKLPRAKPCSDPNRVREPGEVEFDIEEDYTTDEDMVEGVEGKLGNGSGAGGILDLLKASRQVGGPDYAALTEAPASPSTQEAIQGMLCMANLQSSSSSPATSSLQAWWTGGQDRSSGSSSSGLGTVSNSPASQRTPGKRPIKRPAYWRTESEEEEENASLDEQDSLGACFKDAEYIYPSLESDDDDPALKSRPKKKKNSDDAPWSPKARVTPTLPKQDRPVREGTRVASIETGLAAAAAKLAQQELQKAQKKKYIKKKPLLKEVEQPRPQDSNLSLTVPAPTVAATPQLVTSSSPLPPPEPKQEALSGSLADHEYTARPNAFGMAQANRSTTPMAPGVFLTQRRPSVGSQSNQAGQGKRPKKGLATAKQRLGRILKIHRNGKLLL
Excerpt: as §1
The ability of test compounds to inhibit the activity of PHF8 was determined in 384-well plate format under the following reaction conditions: 3 nM PHF8, 200 nM H3K9me1-biotin labeled peptide (Anaspec cat #64358), 0.5 μM alpha-ketoglutaric acid in assay buffer of 50 mM HEPES, pH7.3, 0.005% Brij35, 0.5 mM TCEP, 0.2 mg/ml BSA, 50 μM sodium L-ascorbate, and 5 μM ammonium iron(II) sulfate. Reaction product was determined quantitatively by TR-FRET after the addition of detection reagent Phycolink Streptavidin-allophycocyanin (Prozyme) and Europium-anti-unmodified-histone H3 lysine 9/lysine27 (H3K9/K27) antibody (PerkinElmer) in the presence of 5 mM EDTA in LANCE detection buffer (PerkinElmer) at a final concentration of 25 nM and 0.5 nM, respectively.
The assay reaction was initiated by the following: 2 μl of the mixture of 600 nM H3K9me1-biotin labeled peptide and 1.5 μM alpha-ketoglutaric acid with 2 μl of 11-point serial diluted inhibitor in 3% DMSO were added to each well of the plate, followed by the addition of 2 μl of 9 nM PHF8 to initiate the reaction. The reaction mixture was incubated at room temperature for 15 minutes, and terminated by the addition of 6 μl of 5 mM EDTA in LANCE detection buffer containing 50 nM Phycolink Streptavidin-allophycocyanin and 1 nM Europium-anti-unmodified H3K9/K27 antibody. Plates were read by EnVision Multilabel Reader in TR-FRET mode (excitation at 320 nm, emission at 615 nm and 665 nm) after 1 hour incubation at room temperature. A ratio was calculated (665/615) for each well and fitted to determine inhibition constant (IC50).
as §4

Sequence of FBXL10 (Q8NHM5 1-650): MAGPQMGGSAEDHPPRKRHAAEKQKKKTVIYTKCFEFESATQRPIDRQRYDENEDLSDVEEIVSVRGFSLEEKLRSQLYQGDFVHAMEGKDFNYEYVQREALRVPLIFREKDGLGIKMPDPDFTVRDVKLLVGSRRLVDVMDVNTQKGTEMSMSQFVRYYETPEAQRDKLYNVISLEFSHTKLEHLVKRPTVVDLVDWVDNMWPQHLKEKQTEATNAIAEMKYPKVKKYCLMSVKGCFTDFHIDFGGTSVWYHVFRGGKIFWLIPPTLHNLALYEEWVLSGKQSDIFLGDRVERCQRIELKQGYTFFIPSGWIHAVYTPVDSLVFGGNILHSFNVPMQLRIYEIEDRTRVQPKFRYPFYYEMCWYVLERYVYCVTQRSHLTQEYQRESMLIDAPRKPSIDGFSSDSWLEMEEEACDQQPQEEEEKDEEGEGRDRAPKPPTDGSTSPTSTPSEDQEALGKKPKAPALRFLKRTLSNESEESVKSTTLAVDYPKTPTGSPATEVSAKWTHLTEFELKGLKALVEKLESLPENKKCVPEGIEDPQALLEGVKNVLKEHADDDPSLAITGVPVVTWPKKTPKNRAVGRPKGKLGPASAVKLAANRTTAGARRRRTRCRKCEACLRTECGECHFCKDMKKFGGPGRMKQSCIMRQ

| IC50 (FBXL10) | IC50 (FBXL11) | IC50 (PHF8) | Structure (SMILES) |
| --- | --- | --- | --- |
| ≤ 100 nM | ≤ 100 nM | 100 to 1000 nM | FC(F)(F)c1cccc(Cn2cnc(-c3cc(-c4c[nH]nn4)ccn3)c2)c1Cl [Example 22, 2-[1-[[2-chloro-3-(trifluoromethyl)phenyl]methyl]imidazol-4-yl]-4-(1H-triazol-4-yl)pyridine] |
| ≤ 100 nM | ≤ 100 nM | 100 to 1000 nM | c1ccc2c(CCn3cnc(-c4cc(-c5c[nH]nn5)ccn4)c3)cccc2c1 [Example 23, 2-[1-(2-naphthalen-1-ylethyl)imidazol-4-yl]-4-(1H-triazol-4-yl)pyridine] |
| ≤ 100 nM | ≤ 100 nM | 1000 to 10000 nM | Cn1cnc(-c2cc(-c3c[nH]nn3)ccn2)c1-c1ccc(F)cc1OCC1CC1 [Example 4, 2-[5-[2-(cyclopropylmethoxy)-4-fluorophenyl]-1-methylimidazol-4-yl]-4-(1H-triazol-4-yl)pyridine] |
| ≤ 100 nM | ≤ 100 nM | 100 to 1000 nM | CC(c1ccccc1)n1cnc(-c2cc(-c3c[nH]nn3)ccn2)c1 (stereo not shown) [Example 5, 2-[1-(1-phenylethyl)imidazol-4-yl]-4-(1H-triazol-4-yl)pyridine] |
| ≤ 100 nM | ≤ 100 nM | 100 to 1000 nM | c1ccc2c(c1)CCCC2Cn1cnc(-c2cc(-c3c[nH]nn3)ccn2)c1 (stereo not shown) [Example 8, 2-[1-(1,2,3,4-tetrahydronaphthalen-1-ylmethyl)imidazol-4-yl]-4-(1H-triazol-4-yl)pyridine] |
| ≤ 100 nM | ≤ 100 nM | ≤ 100 nM | Clc1ccccc1CCn1cnc(-c2cc(-c3c[nH]nn3)ccn2)c1 [Example 6, 2-[1-[2-(2-chlorophenyl)ethyl]imidazol-4-yl]-4-(1H-triazol-4-yl)pyridine] |
| ≤ 100 nM | 100 to 1000 nM | 100 to 1000 nM | Clc1ccccc1Cn1cnc(-c2cc(-c3c[nH]nn3)ccn2)c1 [Example 2, 2-[1-[(2-chlorophenyl)methyl]imidazol-4-yl]-4-(1H-triazol-4-yl)pyridine] |
| ≤ 100 nM | ≤ 100 nM | 100 to 1000 nM | CCOc1ccccc1CCn1cnc(-c2cc(-c3c[nH]nn3)ccn2)c1 [Example 9, 2-[1-[2-(2-ethoxyphenyl)ethyl]imidazol-4-yl]-4-(1H-triazol-4-yl)pyridine] |
| ≤ 100 nM | 100 to 1000 nM | 1000 to 10000 nM | CCOc1cc(-c2c(-c3cc(-c4c[nH]nn4)ccn3)ncn2C)ccc1F [Example 25, 2-[5-(3-ethoxy-4-fluorophenyl)-1-methylimidazol-4-yl]-4-(1H-triazol-4-yl)pyridine] |
| ≤ 100 nM | ≤ 100 nM | 100 to 1000 nM | Clc1cccc(Cn2cnc(-c3cc(-c4c[nH]nn4)ccn3)c2)c1Cl [Example 21, 2-[1-[(2,3-dichlorophenyl)methyl]imidazol-4-yl]-4-(1H-triazol-4-yl)pyridine] |
| ≤ 100 nM | ≤ 100 nM | 100 to 1000 nM | COc1ccccc1CCn1cnc(-c2cc(-c3c[nH]nn3)ccn2)c1 [Example 7, 2-[1-[2-(2-methoxyphenyl)ethyl]imidazol-4-yl]-4-(1H-triazol-4-yl)pyridine] |
| ≤ 100 nM |  | ≤ 100 nM | Fc1c(Cl)cccc1Cn1cnc(-c2cc(-c3c[nH]nn3)ccn2)c1 [Example 29, 2-[1-[(3-chloro-2-fluorophenyl)methyl]imidazol-4-yl]-4-(1H-triazol-4-yl)pyridine] |
| ≤ 100 nM |  | 100 to 1000 nM | Cc1cccc(Cn2cnc(-c3cc(-c4c[nH]nn4)ccn3)c2)c1F [Example 28, 2-[1-[(2-fluoro-3-methylphenyl)methyl]imidazol-4-yl]-4-(1H-triazol-4-yl)pyridin] |
